The target in series [1] is human dopamine D5 receptor (hD5R) (Homo sapiens, UniProt P21918). Put plainly: hD5R cAMP HTRF assay (stable HEK293). As to conditions: for Efficacy hD5R cAMP: percent of maximum response of 5 µM dopamine. A general note: Time-resolved FRET reads energy transfer from a long-lived donor to a nearby acceptor.
Series [2] has as its target human D1R (Homo sapiens, UniProt P21728). The series is described as follows: Human D1R radioligand binding ([3H]-SCH23390, LTK cells).
Procedure: (§1) Binding assays were performed using stably expressed human D1R LTK, HEK293 rat D1R (rD1R), CHO human D2R (hD2R), CHO human D3R, and Millipore CHEM-1 human D5R (HTS129M) cell lines or primary striatal tissue from cynomolgus monkey brain. […] These ligand and tissue concentrations were used in time course studies to determine linearity and equilibrium conditions for binding. Binding reached equilibrium with the specified amount of tissue by 30 min at 37 °C for hD1R, rD1R, mD1R, 20 min at 37 °C for D2R and D3R and 60 min at room temperature for D5R. […] Membrane radioligand levels were determined by liquid scintillation counting of the filter plates in 50 µl Ecolume. […] Ki values were calculated according to the Cheng-Prusoff equation.
For series [3], the target named is human D3R (Homo sapiens, UniProt P35462). Put plainly: Human D3R radioligand binding ([3H]-7-OH-DPAT, CHO).
Procedure: as §1
In series [4] the target is human D2R (hD2R) (Homo sapiens, UniProt P14416). The series is described as follows: Human D2R radioligand binding ([3H]-spiperone, CHO).
Procedure: as §1
The target of series [5] is human D5R (Homo sapiens, UniProt P21918). The series is described as follows: Human D5R radioligand binding ([3H]-SCH23390, CHEM-1).
Procedure: as §1
For series [6], the system named is human D1R / β-arrestin2-GFP in U2OS cells. Put plainly: β-arrestin2-GFP membrane recruitment, TIRFM, U2OS cells. The class given is cell-based. The settings on record: U2OS cells expressing human D1R, 1 μM agonist, 10 min. The method, then: This stable U2OS cell line was generated, obtained and licensed from Professor Marc G. Caron, Duke University, Durham, NC, USA. […] The U2OS cells were cultured under antibiotic selection in DMEM (Invitrogen) containing 25 mM glucose and 4 mM L-glutamine supplemented with 10% dialyzed fetal bovine serum, […] Geneticin, […] Zeocin, and 100 U/ml penicillin/streptomycin (all from Invitrogen) and incubated at 37 °C in 5% CO2. Cells from passage four through ten were used in these experiments. Cells were grown in 35 mm glass bottomed imaging dishes (Mattek Corp). Cells were incubated for 1 h in serum free media (SFM) and subsequently treated for 10 min at 37 °C with 0.01% DMSO (control) or 1 μM of all test compounds dissolved in SFM followed by immediate fixation on ice with a 4% paraformaldehyde/1× phosphate buffered saline solution.
TIRFM was used to visualize proteins at the plasma membrane of cells such as D1 receptors and recruited β-arrestin-GFP[65]. All images were captured using a Zeiss PS.1 Elyra Superresolution fluorescence microscope equipped with TIRF module.
Custom image analysis scripts were developed to automatically identify and quantify β-arrestin membrane recruitment. We employed standard methods of image processing based on grayscale morphology. First 16bit images were transformed to 8bit range via square root transformation to improve identification of punctate structure of varying intensity. Images were smoothed with small Gaussian kernel to eliminate noise (h = 2px, σ = 1). At the next step images were transformed via tophat operation with large kernel (radius 30px) to eliminate non-uniformity of the background. Second tophat transform with small kernel (radius 5px) was used to enhance signal and eliminate local intensity variation around puncta. This image was then processed to find locations of puncta intensity peaks via non-maximal suppression filter with 3px radius of region considered in non-maximal suppression, and threshold 20. Finally the boundaries of puncta were identified using marker controlled watershed operation with peaks serving as foreground markers. After having identified each puncta, we used 8bit transformed but otherwise non-processed images to quantify intensity and area of each region. We focused on two endpoints, number of puncta per cell and integrated intensity of puncta per cell (sum of the products of average intensity and area of each puncta within a cell), both adjusted for cell area as described below. The boundaries of the cells were identified via Otsu's method, followed by hole filling and identification of the largest closely connected component. The area of the foreground was used as normalization factor to account for occasional differences in cell areas in the field of view. Specifically all foreground areas across experiment were pooled and divided by the median of the areas to obtain normalization factor for each image. This factor was then used for adjustment for number of puncta and integrated intensity of puncta, which scale with the number of cells. Puncta outside of cell boundaries were filtered out.
The results were aggregated over batches of cells recorded at the same time, with three or more batches per condition, approximately 20 cells per well. The statistical significance was tested via one-way ANOVA with treatment as a factor. To address the problem of severe inequality of variances across the treatment groups assessed via Bartlett′s test, we used square root transformation. All statistical results for the number of puncta per cell and integrated intensity of puncta per cell are presented for transformed variables. Significant ANOVA findings were followed with post-hoc comparisons with Dunnett′s procedure in case of comparisons with the control group or with false discover rate adjustment[69] otherwise. All statistical tests were performed two-tailed at a 5% level of significance.

Series [7] deals with cynomolgus monkeys. The series is described as follows: Monkey spontaneous eye blink rate (EBR). The class given is in vivo, Macaca fasicularis. As to conditions: monkey; data not shown. On the procedure: Increase in spontaneous EBR has been previously shown with D1 agonists and partial agonists. To confirm the specificity of the response in our particular assay set up for D1 activation, we verified that the D1 receptor antagonist SCH-39166 fully blocks the increased eye blink response of non-catechol full D1 agonist that is a close structural analog of the compounds in this paper (data not shown). All procedures involving animals were conducted with approval of the Pfizer Institutional Animal Care and Use Committee (Groton, CT) and compliant with the regulations and standards of the Animal Welfare Act (9CFR2, 9CFR3). Three male Cynomolgus macaques (Macaca fasicularis) of Mauritian origin, 7–10 years old, SPF for CHV-1, SIV, STLV1 and SRV 1, 2, 5 were used. Animals were exposed to 12 h light/dark cycle (lights on 6:00 AM – 6:00 PM). […] EBRS were recorded from chaired animals for 2 min at 10 min intervals by a trained observer through direct visual observation who was blinded to experimental conditions. Animals were chaired at approximately 7:30 AM. After vehicle or compound administration, eye blinks were recorded during the following intervals: from 10 to 50 min (0–1 h), 130 to 170 min (2–3 h), 310 to 350 min (5–6 h). Animals were returned to their home cages between two consecutive sessions and after the final recording of the day. Blood samples (1 ml) were collected from the femoral vein at 1 and 5 h after the first dose to quantitate plasma compound levels. […] A77636 was dissolved in 0.9% sterile saline, formulated fresh prior to administration, and given once per day for 3 days. […] Vehicle control was administered on day 0.
EBR data were first converted to blinks per minute. EBR were averaged by binning into 3 periods: Period 1 (0–1 h after the first dose) EBR = mean of 10, 20, 30, 40, and 50 min recordings; Period 2 (2–3 h after the first dose) EBR = mean of 130, 140, 150, 160, and 170 min recordings; Period 3 (5–6 h after the first dose) EBR = mean of 310, 320, 330, 340, and 350 min recordings. For Fig. 5c EBR data were averaged by binning data from periods 1 through 3 as daily EBR. Data from each animal was then normalized to their respective Day 1 EBR and expressed as percent of Day 1 EBR for each drug. EBR data were analyzed with SAS® 9.4 (SAS Institute Inc. Cary, NC) using a mixed linear model (Mixed Procedure) for repeated measures. The model included treatment, day, time period, and their interactions as fixed effects, and animal and animal-by-day interaction as random effects. A first order autoregressive model was used for longitudinal covariance structure. Differences between least squares means across days, overall and for each time period, were tested and adjusted for multiple comparisons via Tukey method. […]

Series [8] has as its target human dopamine D1 receptor (hD1R) (Homo sapiens, UniProt P21728). Put plainly: hD1R cAMP HTRF assay (stable HEK293). The settings on record: percent of maximum response of 5 µM dopamine.
Series [9] can be described thus: Rat pharmacokinetic studies. The class given is in vivo, Wistar Hannover rat. On the procedure: Rat pharmacokinetic studies were conducted at BioDuro, Pharmaceutical Product Development, Inc. (Shanghai, China). Wistar Hannover rats (227–293 gram weight) were obtained from Vital River Laboratories (China). All animal studies were conducted in accordance with the Pfizer Institutional Animal Care and Use Committee (Groton, CT), using protocols approved by Pfizer PDM′s Global BA Committee (2009). Jugular vein-cannulated male Wistar Hanover rats were maintained on a 12 h light/dark cycle for a minimum of three days in a temperature-controlled and humidity-controlled environment with free access to food and water. Individual animals (n = 2 or 3 per dose/route) were administered a single dose of compound by either intravenous injection via tail vein or oral gavage based on body weight. […] The PF-6142 intravenous dose (1 mg/kg) was formulated in saline acidified with three molar equivalents of 1 N hydrochloric acid and the PF-6142 oral dose (5 mg/kg) was formulated in 0.5% methylcellulose. […] Formulations were agitated until all of the test article was dissolved. […] From each rat, serial blood samples were collected via jugular vein cannula prior to dose administration and at the following time points post-dose: 0.033 (i.v. only), 0.083, 0.25, 0.5, 1, 2, 4, 7, and 24 h. […] All blood samples were placed on wet ice until centrifugation. Following centrifugation, the plasma was transferred to polypropylene tubes and stored frozen at either −20 °C to −80 °C until analysis. Urine was collected from all intravenous-dosed rats into collection tubes from the collection intervals of 0–7 h and 7–24 h post-dose. […] All urine samples were stored at −80 °C until analysis. All samples were processed for quantitation of compound concentrations using protein precipitation methodology followed by analysis using liquid chromatography-tandem mass spectrometry (LC-MS/MS). […] The pharmacokinetic parameters (including those in Supplementary Table 3) were computed by non-compartmental analysis[61] using Watson Bioanalytical LIMS version 7.4 (Thermo Fischer Scientific, CA).

For series [10], the system named is D1R in rat striatal neurons. Put plainly: D1R desensitization in primary rat striatal neurons (cAMP after SKF-81297 challenge). It counts as cell-based. As to conditions: rat striatal neurons pretreated 120 min with 10 μM agonist. On the procedure: Striatal neurons were chosen for the desensitization studies because they express endogenous D1 receptors and are a physiologically relevant tissue for examining neurotransmitter receptor desensitization in vitro. […] Both hemispheres of the striatum were microdissected from the embryonic rat brains and placed into HBSS. All isolated tissue was combined and washed 1× with HBSS, followed by trypsinization using a 0.05% trypsin-EDTA solution for 15 min at 37 °C. […] The cell suspension was added to the top of 5 ml complete MEM media with 1 ml of 100% FBS serum at bottom of a 15 ml tube and centrifuged at 1450 rpm for 5 min. The […] and diluted 10-20× in complete MEM and cell density determined. Cells were plated at a density of 35,000 cells/well in poly-ornithine/laminin coated 96 well plates (Biocoat, BD Falcon) and cultured in Neurobasal media supplemented with B27, 1× Glutamax, and penicillin/streptomycin (100 U/mL) (all from Invitrogen) at 37 °C in 5% CO2 for 14-16 days prior to assay. […] After the pretreatment, cells were washed twice at 5 min intervals with 250 μl/well fresh Neurobasal media. […] The concentration of cAMP (nM) from treated wells was interpolated from a cAMP standard curve by non-linear regression least squares analysis using Graphpad Prism 5.02. […] The percent desensitization was calculated as the percent decrease in cAMP relative to vehicle control. Statistical differences were compared by a one-way ANOVA with Dunnett's post-test analysis using Graphpad Prism 5.02.

Experimental findings from paper PMC5813016 (Nature Communications, 2018) are described below.

Entries after “also recorded” stand apart in the source; their conditions may differ.

Chain of human D3R (P35462 whole entry): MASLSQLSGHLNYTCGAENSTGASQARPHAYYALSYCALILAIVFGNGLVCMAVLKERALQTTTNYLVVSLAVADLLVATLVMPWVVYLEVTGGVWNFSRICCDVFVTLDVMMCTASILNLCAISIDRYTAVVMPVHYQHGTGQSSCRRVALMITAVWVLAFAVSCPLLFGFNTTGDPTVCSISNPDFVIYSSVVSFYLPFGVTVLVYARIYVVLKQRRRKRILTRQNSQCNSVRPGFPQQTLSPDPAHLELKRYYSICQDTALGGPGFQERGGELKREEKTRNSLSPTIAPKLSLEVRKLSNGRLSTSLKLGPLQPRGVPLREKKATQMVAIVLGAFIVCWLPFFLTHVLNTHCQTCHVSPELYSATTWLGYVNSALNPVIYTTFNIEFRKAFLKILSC
Chain of human dopamine D5 receptor (hD5R) (P21918 whole entry): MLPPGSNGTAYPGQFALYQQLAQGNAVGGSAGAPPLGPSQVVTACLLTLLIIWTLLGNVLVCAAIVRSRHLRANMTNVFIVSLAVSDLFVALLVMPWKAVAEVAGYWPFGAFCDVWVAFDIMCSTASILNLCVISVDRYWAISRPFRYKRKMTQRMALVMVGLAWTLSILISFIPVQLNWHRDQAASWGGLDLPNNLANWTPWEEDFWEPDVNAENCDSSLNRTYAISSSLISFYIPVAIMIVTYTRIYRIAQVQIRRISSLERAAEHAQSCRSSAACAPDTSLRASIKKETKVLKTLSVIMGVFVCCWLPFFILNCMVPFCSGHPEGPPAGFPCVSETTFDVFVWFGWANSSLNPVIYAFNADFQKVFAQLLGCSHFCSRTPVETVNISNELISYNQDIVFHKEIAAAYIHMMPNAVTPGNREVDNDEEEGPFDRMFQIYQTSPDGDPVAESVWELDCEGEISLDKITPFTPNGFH
Chain of human dopamine D1 receptor (hD1R) (P21728 whole entry): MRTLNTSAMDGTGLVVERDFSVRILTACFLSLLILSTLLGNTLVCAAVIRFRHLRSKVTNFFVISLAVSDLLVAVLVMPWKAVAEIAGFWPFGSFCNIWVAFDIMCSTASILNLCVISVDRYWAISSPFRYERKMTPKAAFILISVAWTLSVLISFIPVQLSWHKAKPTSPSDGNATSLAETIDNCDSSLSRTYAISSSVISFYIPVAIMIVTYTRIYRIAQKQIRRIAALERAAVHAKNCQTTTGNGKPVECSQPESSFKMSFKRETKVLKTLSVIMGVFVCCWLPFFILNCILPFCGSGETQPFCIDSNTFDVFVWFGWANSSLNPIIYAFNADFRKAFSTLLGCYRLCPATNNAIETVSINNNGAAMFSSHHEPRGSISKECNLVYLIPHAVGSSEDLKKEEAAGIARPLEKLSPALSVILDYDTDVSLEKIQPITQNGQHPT
Chain of human D1R (P21728 whole entry): as above
Chain of human D2R (hD2R) (P14416 whole entry): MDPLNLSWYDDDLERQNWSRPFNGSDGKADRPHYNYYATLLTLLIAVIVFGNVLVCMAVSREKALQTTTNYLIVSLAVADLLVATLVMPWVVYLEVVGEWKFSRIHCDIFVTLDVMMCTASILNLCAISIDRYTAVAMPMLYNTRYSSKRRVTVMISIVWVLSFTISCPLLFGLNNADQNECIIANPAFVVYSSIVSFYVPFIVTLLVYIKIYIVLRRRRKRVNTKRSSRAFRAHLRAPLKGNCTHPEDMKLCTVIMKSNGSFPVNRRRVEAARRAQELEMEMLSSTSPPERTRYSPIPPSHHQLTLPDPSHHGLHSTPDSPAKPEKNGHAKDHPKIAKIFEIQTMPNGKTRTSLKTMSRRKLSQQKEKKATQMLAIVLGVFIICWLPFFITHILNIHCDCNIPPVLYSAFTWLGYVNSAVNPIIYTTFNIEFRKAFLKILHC
Chain of human D5R (P21918 whole entry): as the sequence (P21918 whole entry) above

In the case of `Cn1nccc1-c1ccc(Oc2nccc3occc23)cc1` [PF-4211], the concentration giving a half-maximal response (EC50) (commonly the concentration at which the effect is half-maximal) in [1] was 1.78 ± 0.144 µM. The “Efficacy hD5R cAMP” value in series [1] came out at 53±1. In addition, the Ki (in general, a dissociation constant, usually derived from enzyme kinetics or from competition with a known ligand) is 3.14 ± 0.335 µM in series [2], above 0.671 µM in series [3], above 4.28 µM in series [4] and 1.89 ± 0.508 µM in series [5].
Consider `Oc1cc2c(c(Cl)c1O)CCNCC2c1ccccc1` (stereo not shown) [SKF-81297, reference compound], for which, in series [1], the “Efficacy hD5R cAMP” value is 100±1. Besides, the “β-arrestin-GFP recruitment to the plasma membrane (TIRFM)” value (from here on “β-arrestin-GFP recruitment”) in series [6] is reported as “membrane associated β-arrestin puncta appeared rapidly”.
With `NCCc1ccc(O)c(O)c1` [Dopamine, reference compound], the “β-arrestin-GFP recruitment” value in [6] is given as “membrane associated β-arrestin puncta appeared rapidly; also recorded: significantly higher signal”.
With `CN1CCc2cc(Cl)c(O)cc2[C@H]2c3ccccc3CC[C@@H]21` [SCH-39166], the “blockade of EBR increase induced by a non-catechol full D1 agonist” value in series [7] is “fully blocks”.
As for `Oc1cc2c(cc1O)[C@H]1c3ccccc3CN[C@@H]1CC2` (racemic) [Dihydrexidine, reference compound], the “β-arrestin-GFP recruitment” value in series [6] is “significantly higher signal”. This compound also had a Ki in series [3] of 0.387 ± 0.021 µM. Also, the “Efficacy hD1R cAMP” value in series [8] amounted to 100±2.
In the case of `Oc1cc2c(cc1O)C(c1ccccc1)CNCC2` (stereo not shown) [SKF-38393, reference compound], the CL entry in series [9] (intravenous (1 mg/kg; PF-2334 0.1 mg/kg)) is listed as “rapid clearance”. Also, the clearance (as a rule, the volume of plasma or blood freed of the substance per unit of time) in series [9] (male, Wistar Hannover, plasma, iv) came out at 245 mL/min/kg. The Vd in [9] (male, Wistar Hannover, plasma, iv, read-out: Vdss) came to 3.9 L/kg. In series [9] (male, Wistar Hannover, plasma, oral bioavailability), the bioavailability – broadly, the share of a dose that reaches the circulation, judged against a reference dose that is usually intravenous – was determined as 9.5%. Also, the half-life in series [9] (male, Wistar Hannover, plasma, read-out: t½ (converted)) is 24 min. Further, the F entry in series [9] (oral bioavailability) is given as “low oral bioavailability”. Further, the Ki in [3] was above 0.671 µM. For the same compound, the “Efficacy hD1R cAMP” value in series [8] is 41±3. In addition, in [10], the “percent desensitization of D1R cAMP response to 1 μM SKF-81297 challenge” value is reported as 40–60%.
